Publication PMC4832243, “Discovery of Potent VEGFR-2 Inhibitors based on Furopyrimidine and Thienopyrimidne Scaffolds as Cancer Targeting Agents” (Scientific Reports, 2016)

Assays:
LOX IMVI = test: NCI 60 cell line panel (SRB), LOX IMVI; type: cell-based; conditions: Homo sapiens, Melanoma, single dose of 10 μM, read-out: Cell Growth Percent
NCI-H522 = test: NCI 60 cell line panel (SRB), NCI-H522; type: cell-based; conditions: Homo sapiens; NCI-H522, Non-Small Cell Lung Cancer; single dose of 10 μM; read-out: Cell Growth Percent
NCI/ADR-RES = test: NCI 60 cell line panel (SRB), NCI/ADR-RES; type: cell-based; conditions: Homo sapiens, Ovarian Cancer, single dose of 10 μM, read-out: Cell Growth Percent
SW-620 = test: NCI 60 cell line panel (SRB), SW-620; type: cell-based; conditions: Homo sapiens; SW-620, Colon Cancer; single dose of 10 μM; read-out: Cell Growth Percent
SK-MEL-2 = test: NCI 60 cell line panel (SRB), SK-MEL-2; type: cell-based; conditions: Homo sapiens; SK-MEL-2, Melanoma; single dose of 10 μM; read-out: Cell Growth Percent
MCF7 = test: NCI 60 cell line panel (SRB), MCF7; type: cell-based; conditions: Homo sapiens; MCF7, Breast Cancer; single dose of 10 μM; read-out: Cell Growth Percent
OVCAR-4 = test: NCI 60 cell line panel (SRB), OVCAR-4; type: cell-based; conditions: Homo sapiens; OVCAR-4, Ovarian Cancer; single dose of 10 μM; read-out: Cell Growth Percent
CCRF-CEM = test: NCI 60 cell line panel (SRB), CCRF-CEM; type: cell-based; conditions: Homo sapiens, Leukemia, single dose of 10 μM, read-out: Cell Growth Percent
HOP-92 = test: NCI 60 cell line panel (SRB), HOP-92; type: cell-based; conditions: Homo sapiens; HOP-92, Non-Small Cell Lung Cancer; single dose of 10 μM; read-out: Cell Growth Percent
DU-145 = test: NCI 60 cell line panel (SRB), DU-145; type: cell-based; conditions: Homo sapiens; DU-145, Prostate Cancer; single dose of 10 μM; read-out: Cell Growth Percent
SF-295 = test: NCI 60 cell line panel (SRB), SF-295; type: cell-based; conditions: Homo sapiens; SF-295, CNS Cancer; single dose of 10 μM; read-out: Cell Growth Percent
UO-31 = test: NCI 60 cell line panel (SRB), UO-31; type: cell-based; conditions: Homo sapiens; UO-31, Renal Cancer; single dose of 10 μM; read-out: Cell Growth Percent
NCI-H23 = test: NCI 60 cell line panel (SRB), NCI-H23; type: cell-based; conditions: Homo sapiens; NCI-H23, Non-Small Cell Lung Cancer; single dose of 10 μM; read-out: Cell Growth Percent
UACC-257 = test: NCI 60 cell line panel (SRB), UACC-257; type: cell-based; conditions: Homo sapiens; UACC-257, Melanoma; single dose of 10 μM; read-out: Cell Growth Percent
MDA-MB-231/ATCC = test: NCI 60 cell line panel (SRB), MDA-MB-231/ATCC; type: cell-based; conditions: Homo sapiens, Breast Cancer, single dose of 10 μM, read-out: Cell Growth Percent
RPMI-8226 = test: NCI 60 cell line panel (SRB), RPMI-8226; type: cell-based; conditions: Homo sapiens; RPMI-8226, Leukemia; single dose of 10 μM; read-out: Cell Growth Percent
NCI-H226 = test: NCI 60 cell line panel (SRB), NCI-H226; type: cell-based; conditions: Homo sapiens; NCI-H226, Non-Small Cell Lung Cancer; single dose of 10 μM; read-out: Cell Growth Percent
EKVX = test: NCI 60 cell line panel (SRB), EKVX; type: cell-based; conditions: Homo sapiens, Non-Small Cell Lung Cancer, single dose of 10 μM, read-out: Cell Growth Percent
OVCAR-3 = test: NCI 60 cell line panel (SRB), OVCAR-3; type: cell-based; conditions: Homo sapiens; OVCAR-3, Ovarian Cancer; single dose of 10 μM; read-out: Cell Growth Percent
SK-OV-3 = test: NCI 60 cell line panel (SRB), SK-OV-3; type: cell-based; conditions: Homo sapiens; SK-OV-3, Ovarian Cancer; single dose of 10 μM; read-out: Cell Growth Percent
HL-60(TB) = test: NCI 60 cell line panel (SRB), HL-60(TB); type: cell-based; conditions: Homo sapiens, Leukemia, single dose of 10 μM, read-out: Cell Growth Percent
CAKI-1 = test: NCI 60 cell line panel (SRB), CAKI-1; type: cell-based; conditions: Homo sapiens; CAKI-1, Renal Cancer; single dose of 10 μM; read-out: Cell Growth Percent
RXF 393 = test: NCI 60 cell line panel (SRB), RXF 393; type: cell-based; conditions: Homo sapiens; RXF 393, Renal Cancer; single dose of 10 μM; read-out: Cell Growth Percent
A498 = test: NCI 60 cell line panel (SRB), A498; type: cell-based; conditions: Homo sapiens; A498, Renal Cancer; single dose of 10 μM; read-out: Cell Growth Percent
PC-3 = test: NCI 60 cell line panel (SRB), PC-3; type: cell-based; conditions: Homo sapiens; PC-3, Prostate Cancer; single dose of 10 μM; read-out: Cell Growth Percent
ACHN = test: NCI 60 cell line panel (SRB), ACHN; type: cell-based; conditions: Homo sapiens, Renal Cancer, single dose of 10 μM, read-out: Cell Growth Percent
T-47D = test: NCI 60 cell line panel (SRB), T-47D; type: cell-based; conditions: Homo sapiens, T47D, Breast Cancer, single dose of 10 μM, read-out: Cell Growth Percent
VEGFR-2 (KDR) = molecular target: T1, VEGFR-2 (KDR) (Homo sapiens, UniProt P35968); test: In vitro VEGFR-2 tyrosine kinase activity (Kinase-Glo Plus luminescence, BPS Bioscience); type: biochemical; conditions: single dose concentration of 10 μM
T1 construct: purchased BPS Bioscience 40301
T1 sequence (P35968 20-1356): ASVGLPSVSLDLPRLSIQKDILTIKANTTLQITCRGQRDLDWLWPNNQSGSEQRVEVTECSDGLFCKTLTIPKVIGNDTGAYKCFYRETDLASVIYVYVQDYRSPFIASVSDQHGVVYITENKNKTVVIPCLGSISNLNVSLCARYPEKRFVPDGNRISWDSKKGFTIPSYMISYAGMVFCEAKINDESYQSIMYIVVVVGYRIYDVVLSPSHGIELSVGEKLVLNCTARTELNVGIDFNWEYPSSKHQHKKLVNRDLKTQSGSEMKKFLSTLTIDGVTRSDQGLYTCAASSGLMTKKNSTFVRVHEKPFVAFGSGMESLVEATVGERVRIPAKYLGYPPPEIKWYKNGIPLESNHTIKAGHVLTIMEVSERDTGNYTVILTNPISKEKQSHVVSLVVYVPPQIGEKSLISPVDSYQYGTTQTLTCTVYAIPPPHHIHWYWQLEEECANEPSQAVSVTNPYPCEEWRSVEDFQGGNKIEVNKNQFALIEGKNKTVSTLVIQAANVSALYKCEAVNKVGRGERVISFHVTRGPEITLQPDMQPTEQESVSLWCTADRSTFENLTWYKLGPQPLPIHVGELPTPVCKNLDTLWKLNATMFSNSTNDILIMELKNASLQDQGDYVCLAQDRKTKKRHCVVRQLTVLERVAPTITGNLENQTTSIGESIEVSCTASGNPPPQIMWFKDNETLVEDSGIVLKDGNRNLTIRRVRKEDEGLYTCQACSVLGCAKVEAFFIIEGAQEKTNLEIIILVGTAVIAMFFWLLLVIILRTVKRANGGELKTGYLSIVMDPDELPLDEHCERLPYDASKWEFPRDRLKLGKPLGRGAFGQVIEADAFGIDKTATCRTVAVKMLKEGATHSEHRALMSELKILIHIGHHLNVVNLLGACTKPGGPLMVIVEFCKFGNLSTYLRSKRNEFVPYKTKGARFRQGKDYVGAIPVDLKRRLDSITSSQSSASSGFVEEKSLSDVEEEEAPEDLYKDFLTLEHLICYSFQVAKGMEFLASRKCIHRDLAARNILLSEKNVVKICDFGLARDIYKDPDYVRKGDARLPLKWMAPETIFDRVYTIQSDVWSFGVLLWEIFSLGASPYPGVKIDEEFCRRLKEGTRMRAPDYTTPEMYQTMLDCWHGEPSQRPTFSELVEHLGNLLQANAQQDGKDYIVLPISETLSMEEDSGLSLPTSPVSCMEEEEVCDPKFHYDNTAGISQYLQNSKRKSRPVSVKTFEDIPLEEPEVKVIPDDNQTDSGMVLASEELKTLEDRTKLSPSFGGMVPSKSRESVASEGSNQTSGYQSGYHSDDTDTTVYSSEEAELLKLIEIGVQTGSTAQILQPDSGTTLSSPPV

HT29 = test: NCI 60 cell line panel (SRB), HT29; type: cell-based; conditions: Homo sapiens, HT-29; HT29, Colon Cancer; single dose of 10 μM; read-out: Cell Growth Percent
HCC-2998 = test: NCI 60 cell line panel (SRB), HCC-2998; type: cell-based; conditions: Homo sapiens; HCC-2998, Colon Cancer; single dose of 10 μM; read-out: Cell Growth Percent
SF-268 = test: NCI 60 cell line panel (SRB), SF-268; type: cell-based; conditions: Homo sapiens; SF-268, CNS Cancer; single dose of 10 μM; read-out: Cell Growth Percent
HCT-15 = test: NCI 60 cell line panel (SRB), HCT-15; type: cell-based; conditions: Homo sapiens; HCT-15, Colon Cancer; single dose of 10 μM; read-out: Cell Growth Percent
OVCAR-8 = test: NCI 60 cell line panel (SRB), OVCAR-8; type: cell-based; conditions: Homo sapiens; OVCAR-8, Ovarian Cancer; single dose of 10 μM; read-out: Cell Growth Percent

SMILES	activity at 10 µM (LOX IMVI)	activity at 10 µM (NCI-H522)	activity at 10 µM (NCI/ADR-RES)	activity at 10 µM (SW-620)	activity at 10 µM (SK-MEL-2)	activity at 10 µM (MCF7)	activity at 10 µM (OVCAR-4)	activity at 10 µM (CCRF-CEM)	activity at 10 µM (HOP-92)	activity at 10 µM (DU-145)	activity at 10 µM (SF-295)	activity at 10 µM (UO-31)	activity at 10 µM (NCI-H23)	activity at 10 µM (UACC-257)	activity at 10 µM (MDA-MB-231/ATCC)	activity at 10 µM (RPMI-8226)	activity at 10 µM (NCI-H226)	activity at 10 µM (EKVX)	activity at 10 µM (OVCAR-3)	activity at 10 µM (SK-OV-3)	other results
O=C(Nc1ccccc1)Nc1ccc(Nc2ncnc3sc4c(c23)CCCC4)cc1 [Compound 20a]	99.4%	92.9%	107%	106%	114%	96.2%	107%	92.3%	100%	109%	102%	71.5%	100%	93.5%	91.6%	99.2%	89.8%	102%	103%	99.5%	activity at 10 µM (HL-60(TB)): 97%; activity at 10 µM (CAKI-1): 100%; activity at 10 µM (RXF 393): 102%; activity at 10 µM (A498): 83.3%; activity at 10 µM (PC-3): 89.8%; activity at 10 µM (ACHN): 101%; activity at 10 µM (T-47D): 100%; inhibition at 10 µM (VEGFR-2 (KDR)): 39%; activity at 10 µM (HT29): 96.1%; activity at 10 µM (HCC-2998): 95.3%; activity at 10 µM (SF-268): 100%; activity at 10 µM (HCT-15): 110%; activity at 10 µM (OVCAR-8): 107%
COc1cccc(NC(=O)Nc2ccc(Nc3ncnc4sc5c(c34)CCCC5)cc2)c1 [Compound 20c]	94.4%	81.2%	106%	112%	116%	86.2%	88.8%	94.6%	118%	105%	99%	61%	104%	94.9%	89%	102%	90.1%	89.6%	99.1%	88.4%	activity at 10 µM (HL-60(TB)): 91.1%; activity at 10 µM (CAKI-1): 97%; activity at 10 µM (RXF 393): 116%; activity at 10 µM (A498): 91.3%; activity at 10 µM (PC-3): 89.6%; activity at 10 µM (ACHN): 92%; activity at 10 µM (T-47D): 66.4%; inhibition at 10 µM (VEGFR-2 (KDR)): 67%; activity at 10 µM (HT29): 104%; activity at 10 µM (HCC-2998): 118%; activity at 10 µM (SF-268): 99.5%; activity at 10 µM (HCT-15): 97.8%; activity at 10 µM (OVCAR-8): 113%
CCOC(=O)c1c(C)oc2ncnc(Nc3ccc(C(=O)NCCc4ccccc4)cc3)c12 [Compound 14e]	75.2%	66.9%	76.9%	105%	82.4%	78.6%	45.5%	80.9%	61.5%	82.1%	90.4%	97.3%	81.8%	79.6%	85.6%	84.5%	63.1%	90.3%	97.2%	85.5%	activity at 10 µM (HL-60(TB)): 87.6%; activity at 10 µM (CAKI-1): 92.5%; activity at 10 µM (RXF 393): 71.7%; activity at 10 µM (A498): 77.5%; activity at 10 µM (PC-3): 59.2%; activity at 10 µM (ACHN): 88.7%; activity at 10 µM (T-47D): 65.1%; inhibition at 10 µM (VEGFR-2 (KDR)): 10%; activity at 10 µM (HT29): 58.8%; activity at 10 µM (HCC-2998): 91.4%; activity at 10 µM (SF-268): 74.1%; activity at 10 µM (HCT-15): 92.2%; activity at 10 µM (OVCAR-8): 76.6%
